In patent US7504420B2, “Compounds which inhibit beta-secretase activity and methods of use” (CoMentis, Inc., priority 2005, dated 2009):

What was measured:
memapsin 2 = memapsin 2 (Homo sapiens, UniProt P56817); assay: Inhibition of memapsin 2 catalytic activity (Ki); type: biochemical; details: memapsin 2, pH 4, 37° C.; read-out: M2K
How it was run: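 Run at 37 °C and pH 4: compound and enzyme pre-incubated 20 min before FS-2 fluorogenic substrate started hydrolysis,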

cathepsin D = cathepsin D (Homo sapiens, UniProt P07339); assay: Inhibition of cathepsin D catalytic activity (Ki); type: biochemical; details: pH 4.0, 37° C., read-out: CDK
Sequence of cathepsin D (P07339 65-412, species assumed): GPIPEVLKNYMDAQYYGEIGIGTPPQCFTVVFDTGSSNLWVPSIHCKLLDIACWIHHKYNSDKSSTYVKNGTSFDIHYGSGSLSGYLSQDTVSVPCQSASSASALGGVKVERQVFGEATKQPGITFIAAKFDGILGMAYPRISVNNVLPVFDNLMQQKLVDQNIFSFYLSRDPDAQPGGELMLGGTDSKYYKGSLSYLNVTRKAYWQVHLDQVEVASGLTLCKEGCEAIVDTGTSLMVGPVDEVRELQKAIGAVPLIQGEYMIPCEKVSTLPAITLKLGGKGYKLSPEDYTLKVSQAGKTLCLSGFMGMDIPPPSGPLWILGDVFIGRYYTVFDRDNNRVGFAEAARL

memapsin 1 = molecular target: T1, memapsin 1 (Homo sapiens, UniProt Q9Y5Z0); assay: Inhibition of memapsin 1 catalytic activity (Ki); type: biochemical; details: memapsin 1, pH 4.0, 37° C.; read-out: M1K
T1 sequence (Q9Y5Z0 63-518): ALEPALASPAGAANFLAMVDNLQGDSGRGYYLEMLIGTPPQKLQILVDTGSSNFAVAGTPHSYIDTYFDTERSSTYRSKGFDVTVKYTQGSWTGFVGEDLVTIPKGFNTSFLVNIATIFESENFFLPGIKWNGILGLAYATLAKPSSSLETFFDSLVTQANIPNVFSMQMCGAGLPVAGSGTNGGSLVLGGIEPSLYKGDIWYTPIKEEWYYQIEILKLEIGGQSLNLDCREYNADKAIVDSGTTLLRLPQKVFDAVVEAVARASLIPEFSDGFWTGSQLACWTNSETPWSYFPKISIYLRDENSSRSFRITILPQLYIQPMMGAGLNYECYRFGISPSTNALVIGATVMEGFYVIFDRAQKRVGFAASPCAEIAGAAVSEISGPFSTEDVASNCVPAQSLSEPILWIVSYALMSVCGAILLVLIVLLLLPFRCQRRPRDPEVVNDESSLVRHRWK
Method: A substrate peptide NH3-ELDLAVEFWHDR-CO2 (SEQ ID NO.:1) (used for inhibition assay of memapsin 2, memapsin 1, and cathepsin D) was dissolved at 2 mg/ml in DMSO and diluted 1:100 in 0.1 M sodium acetate, pH 4.0 just prior to assay. Inhibitor dissolved in DMSO was diluted into 0.1 M sodium acetate, pH 4.0 (1:100 dilution). A […] aliquot of the inhibitor solution in pH 4 buffer was combined with […] of 0.1 M sodium acetate containing 100-200 nM of memapsin 1, memapsin 2, or cathepsin D. Following a pre-incubation at 37° C., the proteolytic assay was initated by addition of […] of the substrate diluted into pH 4 buffer, and incubation continued at 37° C. Aliquots were removed at time intervals, and combined with an equal volume of MALDI-TOF matrix (α-hydroxycinnamic acid in acetone, 20 mg/ml) and immediately spotted in duplicate onto a stainless-steel MALDI sample plate. MALDI-TOF mass spectrometry was performed on a PE Biosystems Voyager DE instrument at the Molecular Biology Resource Center on campus. The instrument was operated at 25,000 accelerating volts in positive mode with a 150 ns delay. Ions with a mass-to-charge ratio (m/z) were detected in the range of 650-2000 atomic mass units. Data were analyzed by the Voyager Data Explorer module to obtain ion intensity data for mass species of substrates and corresponding products in a given mixture. Relative product formation was calculated as the ratio of signal intensity of the product to the sum of signal intensities of both product and the corresponding substrate. Relative product formed per unit time was obtained from non-linear regression analysis of the data representing the initial 15% formation of product using the model: 1−e^−kT, where k was the relative hydrolytic rate constant and T was time in seconds. Alternatively, relative hydrolytic rates were determined using a fluorogenic cleavage assay (Ermolieff, J. et al., Biochemistry, 39: 12450-12456 (2000)). Initial rates from either method were expressed relative to uninhibited controls and the inhibition constant Ki was determined by a non-linear fit to a tight-binding model of competitive inhibition (Bieth, J., Bayer-Symposium V: Proteinase Inhibitors, pp 463-469, Spinger-Varlag, Berlin (1994)). Results are shown in Table 1 above (M2K, CDK, and M1K columns represent, respectively, the K1 values obtained for memapsin 2, cathepsin D and memapsin 1).

[1] = tested on: Aβ production in Chinese hamster ovary cells that over-express human APP695 with the London and Swedish mutations; assay: Cellular Aβ IC50 determination (Aβ40 sandwich ELISA); details: Cricetulus griseus, CHO, 24 h, read-out: Cell, Aβ40, CHO cells over-expressing human APP695 (London and Swedish mutations), 24 h

Sequence of memapsin 2 (P56817 46-501): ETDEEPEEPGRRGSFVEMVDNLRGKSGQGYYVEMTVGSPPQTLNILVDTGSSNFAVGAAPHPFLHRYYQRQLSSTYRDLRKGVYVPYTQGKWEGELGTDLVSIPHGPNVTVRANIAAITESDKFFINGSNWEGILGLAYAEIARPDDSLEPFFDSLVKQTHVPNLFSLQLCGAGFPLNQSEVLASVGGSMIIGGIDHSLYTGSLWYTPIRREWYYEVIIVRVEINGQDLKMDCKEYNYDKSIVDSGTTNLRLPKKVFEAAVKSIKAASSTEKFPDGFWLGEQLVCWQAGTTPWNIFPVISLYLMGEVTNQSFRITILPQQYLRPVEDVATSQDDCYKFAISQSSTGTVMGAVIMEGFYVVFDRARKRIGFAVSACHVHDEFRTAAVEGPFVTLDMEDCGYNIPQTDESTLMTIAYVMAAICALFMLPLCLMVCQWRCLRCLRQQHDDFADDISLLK

Work on `Cc1cncc(CNCC(O)C(Cc2ccccc2)NC(=O)c2cc(C(=O)NC(C)c3ccccc3)cc(N(C)S(C)(=O)=O)c2)c1` (centres unmarked) [N1-(3-hydroxy-4-((5-methylpyridin-3-yl)methylamino)-1-phenylbutan-2-yl)-5-(N-methylmethylsulfonamido)-N3-(1-phenylethyl)isophthalamide] yielded a Ki (memapsin 2) of less than 300 nM, a Ki (cathepsin D) of less than 300 nM and a Ki (memapsin 1) of 301 to 500 nM. The IC50 [1] was less than 1000 nM.
With `Cc1cccc(CNCC(O)C(Cc2ccccc2)NC(=O)c2cc(C(=O)NC(C)c3ccccc3)cc(N(C)S(C)(=O)=O)c2)n1` (centres unmarked) [N1-(3-hydroxy-4-((6-methylpyridin-2-yl)methylamino)-1-phenylbutan-2-yl)-5-(N-methylmethylsulfonamido)-N3-(1-phenylethyl)isophthalamide] the Ki (memapsin 2) was 301 to 500 nM, the Ki (cathepsin D) was greater than 501 nM and the Ki (memapsin 1) was 301 to 500 nM. The IC50 [1] was less than 1000 nM.
`CC(NCC(O)C(Cc1ccccc1)NC(=O)c1cc(C(=O)NC(C)c2ccccc2)cc(N(C)S(C)(=O)=O)c1)c1ccc(F)cc1` (centres unmarked) [N1-(4-(1-(4-fluorophenyl)ethylamino)-3-hydroxy-1-phenylbutan-2-yl)-5-(N-methylmethylsulfonamido)-N3-(1-phenylethyl)isophthalamide] showed a Ki (memapsin 2) of less than 300 nM, a Ki (cathepsin D) of less than 300 nM and a Ki (memapsin 1) of less than 300 nM. It also gave an IC50 [1] of less than 1000 nM.
`CC(NC(=O)c1cc(C(=O)NC(Cc2ccccc2)C(O)CNCc2cc(F)cc(F)c2)cc(N(C)S(C)(=O)=O)c1)c1ccccc1` (centres unmarked) [N1-(4-(3,5-difluorobenzylamino)-3-hydroxy-1-phenylbutan-2-yl)-5-(N-methylmethylsulfonamido)-N3-(1-phenylethyl)isophthalamide] gave a Ki (memapsin 2) of less than 300 nM, a Ki (cathepsin D) of less than 300 nM and a Ki (memapsin 1) greater than 501 nM. For the same molecule, the IC50 [1] was less than 1000 nM.
In the case of `CC(=O)Nc1cccc(CNCC(O)C(Cc2ccccc2)NC(=O)c2cc(C(=O)NC(C)c3ccccc3)cc(N(C)S(C)(=O)=O)c2)c1` (centres unmarked) [N1-(4-(3-acetamidobenzylamino)-3-hydroxy-1-phenylbutan-2-yl)-5-(N-methylmethylsulfonamido)-N3-(1-phenylethyl)isophthalamide], the Ki (memapsin 2) is reported as less than 300 nM, the Ki (cathepsin D) is reported as 301 to 500 nM and the Ki (memapsin 1) is reported as less than 300 nM. The IC50 [1] was less than 1000 nM.
`CC(NC(=O)c1cc(C(=O)NC(Cc2ccccc2)C(O)CNCc2cccc(F)c2)cc(N(C)S(C)(=O)=O)c1)c1ccccc1` (centres unmarked) [N1-(4-(3-fluorobenzylamino)-3-hydroxy-1-phenylbutan-2-yl)-5-(N-methylmethylsulfonamido)-N3-(1-phenylethyl)isophthalamide] gave a Ki (memapsin 2) of less than 300 nM, a Ki (cathepsin D) of 301 to 500 nM and a Ki (memapsin 1) greater than 501 nM. For the same molecule, the IC50 [1] was less than 1000 nM.
For `Cc1csc(CN(C)C(=O)c2cccc(C(=O)NC(Cc3ccccc3)C(O)CNCc3cccc(F)c3)c2)n1` (centres unmarked) [N1-(4-(3-fluorobenzylamino)-3-hydroxy-1-phenylbutan-2-yl)-N3-methyl-N3-((4-methylthiazol-2-yl)methyl)isophthalamide], the Ki (memapsin 2) was greater than 501 nM, the Ki (cathepsin D) was less than 300 nM and the Ki (memapsin 1) was greater than 501 nM. It also gave an IC50 [1] of less than 1000 nM.
`CC(NC(=O)c1cc(C(=O)NC(Cc2ccccc2)C(O)CNCc2ccccc2)cc(N(C)S(C)(=O)=O)c1)c1ccccc1` (centres unmarked) [N1-(4-(benzylamino)-3-hydroxy-1-phenylbutan-2-yl)-5-(N-methylmethylsulfonamido)-N3-(1-phenylethyl)isophthalamide] gave a Ki (memapsin 2) of less than 300 nM, a Ki (cathepsin D) of less than 300 nM and a Ki (memapsin 1) of less than 300 nM. For the same molecule, the IC50 [1] was less than 1000 nM.
`COc1cccc(CNCC(O)C(Cc2ccccc2)NC(=O)c2cc(C(=O)NCc3nc(C)oc3C)cc(N(C)S(C)(=O)=O)c2)c1` (centres unmarked) [N1-((2,5-dimethyloxazol-4-yl)methyl)-N3-(3-hydroxy-4-(3-methoxybenzylamino)-1-phenylbutan-2-yl)-5-(N-methylmethylsulfonamido)isophthalamide] gave a Ki (memapsin 2) greater than 501 nM, a Ki (cathepsin D) greater than 501 nM and a Ki (memapsin 1) greater than 501 nM. For the same molecule, the IC50 [1] was 1000 to 5000 nM.
In the case of `COc1cccc(CNCC(O)C(Cc2ccccc2)NC(=O)c2cc(C(=O)NCC3COC4OCCC34)cc(N(C)S(C)(=O)=O)c2)c1` (centres unmarked) [N1-((hexahydrofuro[2,3-b]furan-3-yl)methyl)-N3-(3-hydroxy-4-(3-methoxybenzylamino)-1-phenylbutan-2-yl)-5-(N-methylmethylsulfonamido)isophthalamide], the Ki (memapsin 2) is reported as 301 to 500 nM, the Ki (cathepsin D) is reported as 301 to 500 nM and the Ki (memapsin 1) is reported as greater than 501 nM. It also gave an IC50 [1] greater than 5000 nM.
For `COc1cccc(CNCC(O)C(Cc2ccccc2)NC(=O)c2cc(C(=O)NCc3ccccc3)cc(N(C)S(C)(=O)=O)c2)c1` (centres unmarked) [N1-benzyl-N3-(3-hydroxy-4-(3-methoxybenzylamino)-1-phenylbutan-2-yl)-5-(N-methylmethylsulfonamido)isophthalamide], the Ki (memapsin 2) was less than 300 nM, the Ki (cathepsin D) was less than 300 nM and the Ki (memapsin 1) was greater than 501 nM. The IC50 [1] was less than 1000 nM.
For `Cc1csc(CN(C(=O)c2cccc(C(=O)NC(Cc3ccccc3)C(O)CNCc3cncc(C(C)C)c3)c2)C2CC2)n1` (centres unmarked) [N1-cyclopropyl-N3-(3-hydroxy-4-((5-isopropylpyridin-3-yl)methylamino)-1-phenylbutan-2-yl)-N1-((4-methylthiazol-2-yl)methyl)isophthalamide], the Ki (memapsin 2) was less than 300 nM, the Ki (cathepsin D) was less than 300 nM and the Ki (memapsin 1) was less than 300 nM. For the same molecule, the IC50 [1] was less than 1000 nM.
`COc1cccc(CNCC(O)C(Cc2ccccc2)NC(=O)c2cc(C(=O)NN(C)c3ccccc3)cc(N(C)S(C)(=O)=O)c2)c1` (centres unmarked) [N-(3-hydroxy-4-(3-methoxybenzylamino)-1-phenylbutan-2-yl)-3-(2-methyl-2-phenylhydrazinecarbonyl)-5-(N-methylmethylsulfonamido)benzamide] showed a Ki (memapsin 2) of less than 300 nM, a Ki (cathepsin D) of less than 300 nM and a Ki (memapsin 1) greater than 501 nM. The IC50 [1] was less than 1000 nM.
`COC(=O)c1cccc(CNCC(O)C(Cc2ccccc2)NC(=O)c2cc(C(=O)NC(C)c3ccccc3)cc(N(C)S(C)(=O)=O)c2)c1` (centres unmarked) [methyl 3-((2-hydroxy-3-(3-(N-methylmethylsulfonamido)-5-(1-phenylethylcarbamoyl)benzamido)-4-phenylbutylamino)methyl)benzoate] was tested, and the Ki (memapsin 2) was greater than 501 nM, the Ki (cathepsin D) was greater than 501 nM and the Ki (memapsin 1) was greater than 501 nM. It also gave an IC50 [1] of less than 1000 nM.
